One test deals with T1, rPAPD5 (Homo sapiens, UniProt Q8NDF8).
T1 construct: made in house
Kind of test: differential scanning fluorimetry (DSF) binding and stabilization of rPAPD5. The note with it: for ΔTm at 100 µM: 100 μM test compound, read-out: ΔTm at 100 μM; for ΔTm at 1 µM: 1 μM test compound (Table 2a), read-out: ΔTm at 1 μM. The essentials: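 Differential scanning fluorimetry was used to measure how test compounds bind and thermally stabilize rPAPD5. The reaction contained SYPRO orange dye diluted 1:5000 in […] of buffer with […], 25 mM Tris-HCl, 5 mM MgCl2 and 50 mM KCl. ΔTm was calculated relative to a DMSO control.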
(In general: In DSF a fluorescence change marks the thermal transition of the protein.)

Test [1] deals with hepatitis B surface antigen (HBSAg) from HepG2.2.15 cells, a hepatitis B virus-expressing cell line. Kind of test: HBsAg ELISA in supernatant of HepG2.2.15 cells. The test is classed as cell-based. The note with it: HepG2.2.15, 96 h. How it is done:
HepG2.2.15 cells, a hepatitis B virus-expressing cell line (Sells, M. A. et al., PNAS, 1987), were plated at 50,000 cells/well in DMEM/F12 media (Gibco) with 10% fetal bovine serum (Omega Scientific) in a 24-well or 96-well plate (Corning), in 2-3 replicates for each test compound/concentration plus controls, and incubated in a humidified 5% CO2 chamber at 37° C. The next day, media was aspirated, cells were washed once with phosphate buffered saline, pH7.4 (Gibco), and 1 mL DMEM/12 media was replaced. Test compounds were added in 3-fold dilutions from up to 100 μM down to 333 pM, with vehicle (dimethylsulfoxide (Sigma)) as a control. After four days of culture in a humidified 5% CO2 chamber at 37° C., plates were spun down in a centrifuge at 300 g for 10 minutes at room temperature. Supernatant from each well was collected and either frozen at −20° C. or used directly for quantitation of hepatitis B surface antigen (HBSAg) in an enzyme-linked immunosorbent assay (ELISA). The supernatant was tested using the HBSAg ELISA kit (Abnova Cat. No KA0286) per the manufacturer's instructions. Results of replicates were averaged and nonlinear curve fitting was used to determine the half maximal inhibitory concentration (IC50) for each test compound.
Background: An ELISA detects its analyte on a solid surface through an enzyme-linked reagent.

In test [2] the test system is TERC 3′ end processing in DC patient iPSCs. The test can be described thus: TERC 3′ end processing by RACE in DC patient / PARN-mutant iPSCs. The format is cell-based, human. The conditions noted are these: Homo sapiens, iPSC; patient iPSCs; concentration class at which activity is seen; read-out: iPSC-based RACE activity. How it is done: (§1) Compound 266A had activity ˜2-logs higher in the in vitro RNA oligoadenylation assay compared to the parental compound cmpd. 1, approximating the activity of RG7834 (FIG. 7). […] 1. Compounds 295A and 296A had activity 2-3 logs higher in DC patient iPSCs, showing TERC maturation at 1 nM, similar to RG7834 (FIG. 6). […] Referring to Table 1D, “+” refers to activity at 1 μM, “++” refers to activity above 1 nM and below 1 μM, and “+++” refers to activity at <1 nM, “ND” refers to not determined.

Test [3] concerns telomere length in DC patient iPSCs. Kind of test: telomere length / telomere elongation in DC patient iPSCs. The format is cell-based, human. The conditions noted are these: Homo sapiens, iPSC; patient iPSCs; concentration class at which activity is seen; read-out: iPSC-based Telomere length. On the procedure:
as §1

The mark [4] stands for this setting: 10 μM test compound (Table 2a), read-out: ΔTm at 10 μM.
The mark [5] stands for this setting: 10 μM test compound, shift vs DMSO control, read-out: ΔTm (Table 2, starred: the compound was tested at 10 μM).

The structures appear in SMILES notation. pIC50: −log10 of the molar value. Like-named read-outs stand apart in the source and are kept apart here.

T1 sequence (Q8NDF8 68-698 isoform Q8NDF8-5 limits assumed): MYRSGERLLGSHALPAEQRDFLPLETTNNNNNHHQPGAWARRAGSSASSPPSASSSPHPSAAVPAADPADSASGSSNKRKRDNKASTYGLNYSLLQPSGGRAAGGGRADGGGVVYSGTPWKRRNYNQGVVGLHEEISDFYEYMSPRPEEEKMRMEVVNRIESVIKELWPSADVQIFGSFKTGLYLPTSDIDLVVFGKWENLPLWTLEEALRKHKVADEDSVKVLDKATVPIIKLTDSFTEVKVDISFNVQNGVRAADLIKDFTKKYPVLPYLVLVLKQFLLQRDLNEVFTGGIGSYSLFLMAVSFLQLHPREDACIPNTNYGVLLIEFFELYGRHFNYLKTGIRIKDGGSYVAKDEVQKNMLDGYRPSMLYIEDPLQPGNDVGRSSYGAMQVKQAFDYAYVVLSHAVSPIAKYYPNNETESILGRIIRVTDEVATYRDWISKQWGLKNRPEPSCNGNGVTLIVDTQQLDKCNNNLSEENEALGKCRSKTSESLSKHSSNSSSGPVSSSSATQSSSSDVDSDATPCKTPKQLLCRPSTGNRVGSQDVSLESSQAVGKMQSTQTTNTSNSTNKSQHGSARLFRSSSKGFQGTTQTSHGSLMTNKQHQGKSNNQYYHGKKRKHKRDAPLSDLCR

With `Cc1ccc(Nc2c(S(=O)(=O)N3CCOCC3)cnc3ccc(Cl)cc23)c(C(=O)O)c1` [Compound 269A, 2-[(6-chloro-3-morpholinosulfonyl-4-quinolyl)amino]-5-methyl-benzoic acid], the thermal shift (ΔTm) (in general, the change in melting temperature against a reference sample) at 100 µM at rPAPD5 (shift vs DMSO control) was > 5 °C. For the same molecule, in test [1], the negative logarithm of the IC50 (pIC50) (as a rule, the negative decadic logarithm of the IC50, by convention in mol/L) was 5.77.

Turning to `COc1ccc(Nc2c(S(=O)(=O)N3CCOCC3)cnc3ccc(Cl)cc23)c(C(=O)O)c1` [Compound 270A, 2-[(6-chloro-3-morpholinosulfonyl-4-quinolyl)amino]-5-methoxy-benzoic acid], on rPAPD5 (shift vs DMSO control), the shift in melting temperature (ΔTm) at 100 µM is > 5 °C. The negative logarithm of the IC50 (pIC50) in test [1] was 5.30.

Turning to `O=C(O)c1ccccc1Nc1c(C2CCSCC2)cnc2ccc(Cl)cc12` [Compound 298A, 2-[(6-chloro-3-tetrahydrothiopyran-4-yl-4-quinolyl)amino]benzoic acid], the ΔTm at 100 µM at rPAPD5 (shift vs DMSO control) is > 5 °C. Moreover, the pIC50 in test [1] was 5.76.

In the case of `Cc1ccc(Nc2c(-c3ncco3)cnc3ccc(Cl)cc23)c(C(=O)O)c1` [Compound 301A, 2-[(6-chloro-3-oxazol-2-yl-4-quinolyl)amino]-5-methyl-benzoic acid], the thermal shift (ΔTm) at 100 µM at rPAPD5 (shift vs DMSO control) was > 5 °C. The molecule further gave a negative-log IC50 (pIC50) in test [1] of 6.03.

For `O=C(O)c1cc(F)ccc1Nc1c(C2CCOCC2)cnc2ccc(Cl)cc12` [Compound 303A, 2-[(6-chloro-3-tetrahydropyran-4-yl-4-quinolyl)amino]-5-fluoro-benzoic acid], the thermal shift (ΔTm) at 100 µM on rPAPD5 (shift vs DMSO control) was > 5 °C. In test [1], this molecule had a negative logarithm of the IC50 (pIC50) of 6.64.

On to `Cc1ccc(Nc2c(C3CCOCC3)cnc3ccc(Cl)cc23)c(C(=O)O)c1` [Compound 305A, 2-[(6-chloro-3-tetrahydropyran-4-yl-4-quinolyl)amino]-5-methyl-benzoic acid], for which the thermal shift (ΔTm) at 100 µM at rPAPD5 (shift vs DMSO control) was > 5 °C. Moreover, in test [1], the pIC50 was 7.18.

Regarding `Cc1ccc(Nc2c(C3=CCOCC3)cnc3ccc(Cl)cc23)c(C(=O)O)c1` [Compound 306A, 2-[[6-chloro-3-(3,6-dihydro-2H-pyran-4-yl)-4-quinolyl]amino]-5-methyl-benzoic acid], the ΔTm at 100 µM on rPAPD5 (shift vs DMSO control) is > 5 °C. In addition, in test [1], the pIC50 is 5.98.

With `COc1ccc(Nc2c(C3CCOCC3)cnc3ccc(Cl)cc23)c(C(=O)O)c1` [Compound 307A, 2-[(6-chloro-3-tetrahydropyran-4-yl-4-quinolyl)amino]-5-methoxy-benzoic acid], the ΔTm at 100 µM at rPAPD5 (shift vs DMSO control) was > 5 °C. This molecule gave a pIC50 in test [1] of 5.88.

On to `O=C(O)c1cc(Cl)ccc1Nc1c(C2CCSCC2)cnc2ccc(Cl)cc12` [Compound 341A, 5-chloro-2-[(6-chloro-3-tetrahydrothiopyran-4-yl-4-quinolyl)amino]benzoic acid], for which, in test [2], the minimal effective concentration was 0.001 to 1 µM. Moreover, on rPAPD5, the thermal shift (ΔTm) at 1 µM is > 5 °C. The ΔTm at 10 µM on rPAPD5 (setting [4]) and on rPAPD5 (setting [5]) was > 5 °C throughout. Also, the pIC50 in test [1] was 7.08.

With `O=C(O)c1cc(Cl)ccc1Nc1c(N2CCSCC2)cnc2ccc(Cl)cc12` [Compound 346A, 5-chloro-2-[(6-chloro-3-thiomorpholino-4-quinolyl)amino]benzoic acid], the minimal effective concentration in test [2] lay within 0.001 to 1 µM. Moreover, the thermal shift (ΔTm) at 1 µM on rPAPD5 was 1 to 5 °C. At rPAPD5 (setting [4]), the ΔTm at 10 µM is > 5 °C. Moreover, the ΔTm at 100 µM at rPAPD5 (shift vs DMSO control) is > 5 °C. Moreover, the pIC50 in test [1] was 7.06.

Consider `O=C(O)c1cc(Cl)ccc1Nc1c(-c2cn[nH]c2)cnc2ccc(Cl)cc12` [Compound 354A, 5-chloro-2-[[6-chloro-3-(1H-pyrazol-4-yl)-4-quinolyl]amino]benzoic acid], for which the minimal effective concentration in test [2] came out at 1 µM. Further, the ΔTm at 1 µM on rPAPD5 lay in the range of 1 to 5 °C. The thermal shift (ΔTm) at 10 µM at rPAPD5 (setting [4]) and at rPAPD5 (setting [5]) was > 5 °C each time. This molecule also had a negative logarithm of the IC50 (pIC50) in test [1] of 5.48.

For the molecule `CN1CC=C(c2cnc3ccc(Cl)cc3c2Nc2ccc(Cl)cc2C(=O)O)CC1` [Compound 367A, 5-chloro-2-[[6-chloro-3-(1-methyl-3,6-dihydro-2H-pyridin-4-yl)-4-quinolyl]amino]benzoic acid], in test [2], the minimal effective concentration amounted to 1 µM. In addition, the thermal shift (ΔTm) at 1 µM on rPAPD5 is > 5 °C. The shift in melting temperature (ΔTm) at 10 µM on rPAPD5 (setting [4]) is > 5 °C. The ΔTm at 100 µM at rPAPD5 (shift vs DMSO control) was > 5 °C. This molecule also showed a pIC50 in test [1] of 6.04.

Consider `O=C(O)c1cc(Cl)ccc1Nc1c(N2CCC(=NO)CC2)cnc2ccc(Cl)cc12` [Compound 376A, 5-chloro-2-[[6-chloro-3-(4-hydroxyimino-1-piperidyl)-4-quinolyl]amino]benzoic acid], for which the minimal effective concentration in test [2] was determined as 1 µM. For the same molecule, on rPAPD5, the thermal shift (ΔTm) at 1 µM is > 5 °C. At rPAPD5 (setting [4]), the ΔTm at 10 µM is > 5 °C. Also, the thermal shift (ΔTm) at 100 µM at rPAPD5 (shift vs DMSO control) is > 5 °C. Besides, the pIC50 in test [1] was 7.00.

`O=C1CCN(c2cnc3ccc(Cl)cc3c2Nc2ccc(Cl)cc2C(=O)O)CC1` [Compound 395A, 5-chloro-2-[[6-chloro-3-(4-oxo-1-piperidyl)-4-quinolyl]amino]benzoic acid]: the minimal effective concentration in test [2] is 1 µM; in test [3], < 0.001 µM. Also, on rPAPD5, the ΔTm at 1 µM was > 5 °C. Besides, at rPAPD5 (setting [4]), the ΔTm at 10 µM was > 5 °C. Moreover, the ΔTm at 100 µM on rPAPD5 (shift vs DMSO control) is > 5 °C.

Turning to `O=C(O)c1cc(Cl)ccc1Nc1c(N2CCC(O)CC2)cnc2ccc(Cl)cc12` [Compound 399A, 5-chloro-2-[[6-chloro-3-(4-hydroxy-1-piperidyl)-4-quinolyl]amino]benzoic acid], the minimal effective concentration in test [2] and in test [3] was < 0.001 µM throughout. In addition, the ΔTm at 1 µM at rPAPD5 is > 5 °C. The shift in melting temperature (ΔTm) at 10 µM at rPAPD5 (setting [4]) was > 5 °C. In addition, the thermal shift (ΔTm) at 100 µM at rPAPD5 (shift vs DMSO control) was > 5 °C.

With `Cc1cc2ncc(S(=O)(=O)N3CCSCC3)c(Nc3ccc(Cl)cc3C(=O)O)c2cc1Cl` [Compound 411A, 5-chloro-2-[(6-chloro-7-methyl-3-thiomorpholinosulfonyl-4-quinolyl)amino]benzoic acid], the minimal effective concentration in test [2] and in test [3] was < 0.001 µM in each case. Further, the ΔTm at 1 µM on rPAPD5 was > 5 °C. The thermal shift (ΔTm) at 10 µM on rPAPD5 (setting [4]) and on rPAPD5 (setting [5]) was > 5 °C throughout.

On to `O=C(O)c1cc(Cl)ccc1Nc1c(S(=O)(=O)N2CCSCC2)cnc2cc(C(F)(F)F)c(Cl)cc12` [Compound 413A, 5-chloro-2-[[6-chloro-3-thiomorpholinosulfonyl-7-(trifluoromethyl)-4-quinolyl]amino]benzoic acid], for which the minimal effective concentration in test [2] and in test [3] was < 0.001 µM each time. Moreover, the thermal shift (ΔTm) at 1 µM on rPAPD5 lay in the range of 1 to 5 °C. For the same molecule, the ΔTm at 10 µM on rPAPD5 (setting [4]) and at rPAPD5 (setting [5]) was > 5 °C throughout.

`O=C(O)c1cc(Cl)ccc1Nc1c(S(=O)(=O)N2CCSCC2)cnc2cc(Cl)c(Cl)cc12` [Compound 414A, 5-chloro-2-[(6,7-dichloro-3-thiomorpholinosulfonyl-4-quinolyl)amino]benzoic acid]: the minimal effective concentration in test [2] and in test [3] was < 0.001 µM throughout. On rPAPD5, the thermal shift (ΔTm) at 1 µM is > 5 °C. Further, the ΔTm at 10 µM on rPAPD5 (setting [4]) and on rPAPD5 (setting [5]) was > 5 °C each time.

`O=C(O)c1cc(Cl)ccc1Nc1c(S(=O)(=O)N2CCSCC2)cnc2cc(Br)c(Cl)cc12` [Compound 416A, 2-[(7-bromo-6-chloro-3-thiomorpholinosulfonyl-4-quinolyl)amino]-5-chloro-benzoic acid]: the minimal effective concentration in test [2] and in test [3] was < 0.001 µM each time. Further, the thermal shift (ΔTm) at 1 µM on rPAPD5 is > 5 °C. For the same molecule, the ΔTm at 10 µM at rPAPD5 (setting [4]) and on rPAPD5 (setting [5]) was > 5 °C each time.

Values taken from US20250026769A1, “PAPD5 INHIBITORS AND METHODS OF USE THEREOF” (The Children's Medical Center Corporation, priority 2021, published 2025).
